The test concerns the target GPR80 (GPR99, proposed P2Y15) (Homo sapiens, UniProt Q96P68). Description: [3H]inositol phosphate accumulation in GPR80-expressing CHO and HEK293 cells. It is filed as cell-based.

GPR80 (GPR99, proposed P2Y15), sequence (Q96P68 whole entry): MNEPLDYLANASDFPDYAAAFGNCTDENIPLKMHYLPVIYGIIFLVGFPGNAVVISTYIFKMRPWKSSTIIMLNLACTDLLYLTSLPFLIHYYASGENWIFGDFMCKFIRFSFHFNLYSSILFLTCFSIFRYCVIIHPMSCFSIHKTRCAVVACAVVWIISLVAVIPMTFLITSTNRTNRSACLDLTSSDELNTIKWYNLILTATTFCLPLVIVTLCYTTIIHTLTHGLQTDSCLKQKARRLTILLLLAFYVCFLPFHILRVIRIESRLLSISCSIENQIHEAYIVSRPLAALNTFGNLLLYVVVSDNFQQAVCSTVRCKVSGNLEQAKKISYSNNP

As to `O=C(O)CCC(=O)C(=O)O` [α-ketoglutarate], the EC50 was 140 ± 10 µM.

The values above are taken from publication PMC2096561 (2004).
